The values that follow come from patent publication US6495598B1, “Perfusate preparation for ophthalmic operation” (Ophtecs Corporation, priority 2001, dated 2002).

Entries after “also recorded” stand apart in the source; their conditions may differ. Read-outs that look alike come from different tables or passages of the source.

Test [1] concerns incubated bovine corneal endothelial cell. Description: cell-activating effect, MTT assay-based method. The settings on record: for cell-activating effect (absorbance at 450 nm): 5 and 20 mM, 48 hrs incubation, vs control containing no HBA. The method, then:
The D-form, D,L-form and L-form of D-3-HBA were dissolved in the DULBECCO's MEM salt incubation media at concentrations of 0 (control), 5 and 20 mM, respectively, and the resulting solutions were injected into a 24-well collagen-coated plate implanted (4×10^4 cell/ml) with a pre-incubated bovine corneal endothelial cell and then incubated for 48 hrs. After the incubation, 50 μl of cell-counting kit (product of DOJIN KAGAKU Ltd.) was added to each well to develop colors, and absorbance at 450 nm was measured by using each supernatant.
A general note: Formazan colour is commonly taken as a measure of viable cells.

The subject of test [2] is cultured bovine corneal endothelial cells damaged by ultrasound. The method, then:
As an invasive model assuming a phacoemulsification and aspiration method used as a surgical method of cataract, incubated bovine corneal endothelial cells damaged by ultrasound were subjected to an experiment for examining the recovery of their barrier function.
Using the incubated bovine corneal endothelial cells damaged by ultrasound, the barrier function-recovering effects of D-3-HBA and oxyglutathione were subjected to an experiment in accordance with the following procedure.
The monolayer of cultured bovine corneal endothelial cells on a filter, which had been damaged by sonication to the cells at 92 W/cm^2 three course at intervals of 0.1 sec, was incubated in DULBECCO's MEM medium (with 10% of embryonic bovine serum) containing 20 mM of D-3-HBA or 0.3 mM of oxyglutathione.

For the next test, the system named is corneas of Dutch rabbits. Conditions: 90 minutes irrigation. The method, then:
Irrigating solution No.1 (Example) and solutions No.3, No.4 and No.5 (Comparative Examples) for testing were prepared by dissolving the predetermined amounts of the components listed in Table 2 and, finally, D-3-HBA so as to adjust the total amounts of the aqueous solutions to be 1 liter; adjusting the pHs of the solutions by diluted hydrochloric acid, and subjecting the solutions to aseptic treatment.
Dutch rabbits (male and female weighing 1.9 to 2.9 kg) were used for an experiment. Experiments were performed in rabbit, anesthetized with intramuscular xylazine hydrochloride (“celactal®”, a product Bayer AG.,) and ketamine hydrochloride (“ketalar®”, a product of Sankyo Co. Ltd,.) through intramuscular injection, a 3.2-mm-wide incision was made corneas limbusing a scalpel for ocular surgery. Subsequently, 18-gauge injection needles having a rounded tip were inserted in the anterior chambers through the incisions, and the irrigating solutions were allowed to irrigate at a flow rate of 10 ml/min for 90 minutes. After the irrigation, the incisions were sewed up once by a sewing needle with a suture. The corneal thicknesses were measured by the ultrasonic pachymeter used in Example 4 before and during the perfusion (at intervals of 30 minutes).

For `C[C@@H](O)CC(=O)[O-].[Na+]` [Solution D-3-HBA, sodium D-3-hydroxy butyrate], the “cell-activating effect (absorbance at 450 nm)” value was “the most active at any concentrations” in test [1] and “activity is obtained” in test [1] (listed as D-form). In addition, in test [1] (tested at 5 and 20 mM, 48 hrs), the “optimum concentration for cell-activating effect” value stood at 20 mM. Moreover, in test [2] (20 mM in MEM medium after sonication damage), the “recovery of the barrier function” value was “quick recovery effect”. The “electrical resistance value of the endothelial layer” value in test [2] (20 mM in MEM medium, vs MEM with 0.3 mM oxyglutathione and MEM alone) is “closer to the value before the irradiation of ultrasound at any observation time”. Also, the “effect of keeping the change in the corneal thickness small” value is on record as “significant” in the test with corneas of Dutch rabbits (bicarbonate ions added to the irrigating solution (FIG. 5)) and “not significant” in the test on corneas of Dutch rabbits (bicarbonate ions not added to the irrigating solution (FIG. 6)).
Take `C[C@H](O)CC(=O)O` [L-form, reference compound]: in test [1], the “cell-activating effect (absorbance at 450 nm)” value is “hardly obtained; also recorded: did not show a significant difference in activity at any concentrations”.
The same measure, in the same setting: as for `CC(O)CC(=O)O` (racemic) [D,L-form, reference compound], the entry is “did not show a significant difference”.
